The text below walks through data of patent publication US20060263351A1, “Methods and compositions for protection against thrombolysis associated reperfusion injury” (The General Hospital Corporation, priority 2002, published 2006).

Entries after “also recorded” stand apart in the source; their conditions may differ.

The test system of series [1] is MMP-9. Particulars: rats pre-treated intravenously with U0126 vs saline, 2 hr focal ischemia. From the text: In this investigation, rats were pre-treated with either saline or U0126 intravenously, then subjected to 2 hr focal ischemia. U0126 inhibits MEK, which is the upstream kinase that activates ERK.
Series [2] concerns primary co-cultures of neurons/astrocytes from rat brain. The series can be described thus: Cytotoxicity assay of LDH release, neuron/astrocyte co-cultures. The following applies: different doses of tPA. The format is cell-based. As for the experimental part: (§1) Different doses of tPA were added to primary co-cultures of neurons/astrocytes from rat brain, or microvessel endothelial cells from human brain. Cytotoxicity assays of LDH release confirmed that these doses were not toxic, consistent with our previous published experience using tPA in vitro (Wang X, et al., Neurosci Lett 274:79-82, 1999). In addition, these doses are within range of plasma concentrations in patients treated with intravenous tPA (NINDS rt-PA Stroke Study Group, New Engl J Med 333:1581-1587, 1995).
On the technique in general: LDH leaks from cells whose membrane has failed.

Series [3] has as its system MMP-9. Put plainly: Zymography of conditioned media, brain microvessel endothelial cells, MMP-9. The series is classed as cell-based, human. As for the experimental part:
as §1

The subject of series [4] is microvessel endothelial cells from human brain. Put plainly: Cytotoxicity assay of LDH release, brain endothelial cells. The format is cell-based. Particulars: different doses of tPA. As for the experimental part:
as §1

A further series has as its system p38 MAP kinase. The series can be described thus: Western blot of phospho-p38 after tPA exposure in vitro. The series is classed as cell-based. Particulars: 40 μg/ml tPA; rat cultures. From the text:
(§2) The presence of MMP upregulation following activation of various signaling pathways after tPA binds to LRP, was investigated. In this investigation, MAP kinase was examined.

For series [5], the system named is MMP-9. The series can be described thus: Gelatin zymography of brain after embolic focal ischemia, MMP-9. The series is classed as in vivo, rat. Particulars: tPA 10 mg/kg, 6 hrs post-ischemia; 12 hrs after embolic focal ischemia; vs saline. From the text:
(§3) The use of BB-94 provided pharmacologic evidence that MMPs were involved in tPA-induced hemorrhage. The role of tPA in further increasing MMP levels was investigated (Sumii, T, E. H. Lo, Stroke 33:831-836, 2002; Aoki, T., et al., Stroke 33:2711-2717, 2002). At 12 hrs after embolic focal ischemia in rats, gelatin zymograms show an upregulation in MMP-9, as expected (FIG. 2A). […] This is an important point since MMP-9 is already produced in ischemic brain. The relevance of tPA-induced MMP-9 is dependent on how much more is released.

Series [6] deals with MMP-9. Put plainly: Gelatin zymography of brain after mechanical (filament) transient focal ischemia, MMP-9. Particulars: 2 hr transient filament occlusion, reperfused 3, 6, or 24 hrs; tPA 10 mg/kg at onset of reperfusion; vs saline. The series is classed as in vivo, rat. The protocol:
Similar findings were obtained in mechanical (filament) models of focal ischemia. Rats were subjected to transient occlusions for 2 hrs, then reperfused for 3, 6, or 24 hrs. Saline controls were compared with rats treated with 10 mg/kg of tPA at the onset of reperfusion.

Series [7] concerns MMP-9. The series can be described thus: tPA-induced MMP-9 production in wild-type murine embryonic fibroblasts (MEF-1). The format is cell-based, mouse. The following applies: wild-type MEF-1 cells.
Series [8] concerns MMP-9. Put plainly: Zymography of conditioned media, neuron/astrocyte co-cultures, MMP-9. Particulars: 24 hr exposure to tPA. The format is cell-based, rat. As for the experimental part:
as §1

Series [9] relates to MMP-2. The series can be described thus: Gelatin zymography of brain after embolic focal ischemia, MMP-2. The format is in vivo, rat. The following applies: tPA 10 mg/kg, 6 hrs post-ischemia; 12 hrs after embolic focal ischemia; vs saline.
Source text: as §3

The test system of series [10] is MMP-2. The series can be described thus: Zymography of conditioned media, brain microvessel endothelial cells, MMP-2. The format is cell-based. The following applies: human brain endothelial cells. As for the experimental part:
as §1

The test system of another series is ERK. The series can be described thus: Western blot of phospho-ERK after tPA exposure in vitro. The series is classed as cell-based. Particulars: 40 μg/ml tPA; rat cultures.
Source text: as §2

Series [11] concerns MMP-9. Put plainly: tPA-induced MMP-9 production in LRP knockout murine embryonic fibroblasts (PEA-13). The format is cell-based, mouse. Particulars: LRP knockout PEA-13 cells.

Regarding `N#CC(=C(/N)Sc1ccccc1N)/C(C#N)=C(\N)Sc1ccccc1N` [U0126], in the series with MMP-9 [1], the “ischemic upregulation of MMP-9” value is given as “can attenuate ischemic upregulation of MMP-9; also recorded: attenuated MMP-9 levels”.
In the case of “tPA: tissue plasminogen activator (alteplase), thrombolytic agent”, the “cytotoxicity (LDH release)” value in [2] and in series [4] was “not toxic” each time. The “secretion of MMP-9” value in the series with MMP-9 [3] (cerebral microvessel endothelial cells, 24 hr exposure to tPA) is on record as “clearly induced secretion of MMP-9; also recorded: increased MMP-9 secretion”; with MMP-9 [8], “clearly induced secretion of MMP-9; also recorded: increased MMP-9 secretion”. Further, the “dose- and time-dependence of tPA-induced MMP-9 release” value with MMP-9 [3] (human brain endothelial cells) is “clear dose- and time-dependence”. Also, the “activation of p38 MAP kinase pathway (phospho-p38)” value in the series on p38 MAP kinase was “activation; also recorded: rapidly activated”. Besides, the “MMP-9 levels in brain (gelatin zymograms)” value with MMP-9 [5] is given as “more than doubled the production of MMP-9; also recorded: doubling of MMP-9”. The “upregulation of MMP-9 in brain (gelatin zymograms)” value with MMP-9 [6] was “clearly amplified the upregulation of MMP-9; also recorded: MMP-9 is amplified”. The MMP-9 production result with MMP-9 [7] was “induced MMP-9 production”. Also, the “MMP-2 levels in brain (gelatin zymograms)” value in the series on MMP-2 [9] is listed as “slightly increased but the difference did not reach statistical significance”. In addition, the “dose- and time-dependence of tPA-induced MMP-2 release” value with MMP-2 [10] is “clear dose- and time-dependence”. Also, the “activation of ERK pathway (phospho-ERK)” value in the series with ERK was “activation of ERK; also recorded: rapidly activated”. Moreover, the MMP-9 response result in the series with MMP-9 [11] is “no tPA-induced MMP-9 response; also recorded: no significant response”.
